What is called EC50 is the midpoint of the concentration-response curve. The Ki is the equilibrium dissociation constant of an inhibitor or competing ligand from its target. The low end stands for a stronger hold on the target, the high end for a looser hold on the target.

16 compounds from US7612084B2, “Amine derivatives for the treatment of asthma and COPD” (Pfizer Inc, priority 2006, dated 2009) can be followed below.

The target in assay [1] is human adrenergic B2 receptor (Homo sapiens, UniProt P07550). The assay is described as follows: Whole cell luciferase reporter assay in CHO cells expressing the hB2 receptor (agonist potency). In kind it is cell-based. To be noted: 4 h incubation, read-out: EC50 - beta2. How it is done:
Functional Assessment of Agonist Potency and Efficacy Using a Whole Cell Luciferase Reporter Assay in CHO Cells Expressing the hB2 Receptor.
CHO (Chinese Hamster Ovary) cells recombinantly expressing the human adrenergic B2 receptor and transfected with a luciferase enzyme reporter gene were maintained in growth media composed of F12:DMEM (Sigma D6421) containing 10% Foetal Bovine Serum (FBS: Sigma F03921) 10 μg/ml puromycin (Sigma N277698), 0.5 mg/ml Geneticin G418 (Sigma G7034) and 2 mM L-glutamine (Sigma G7513). The cells were kept in sterile conditions at 37° C., in an atmosphere containing 5% CO2.
hB2 Luciferase Assay Protocol
Cells were harvested for assay when they reached 80-90% confluency using enzyme free cell Dissociation Solution (Life technologies 13151-014) incubated with the cells for 5 min at 37° C. in an atmosphere containing 5% CO2. Detached cells were collected in warmed growth media (composition described above), and re-suspended in assay media (F12:DMEM (Sigma D6421) containing 1% Foetal Bovine Serum (FBS: Sigma F03921), 10 μg/ml puromycin (Sigma N277698), 0.5 mg/ml Geneticin G418 (Sigma G7034) and 2 mM L-glutamine (Sigma G7513))to give a viable cell concentration of 1×10^6 cells/ml. 10 ul of this suspension was added to each well of a tissue culture treated low volume 384 well plate (Greiner788073) and the plate incubated in an atmosphere containing 5% CO2 at 37° C. for 2 h. Concentration ranges of test compounds were prepared in phosphate Buffered Saline containing 0.05% pluronic-F127 (Sigma P2443) and 2.5% DMSO. 2 μl of each test concentration were added to the appropriate 384 plate well and returned to the incubator for a further 4 h. At the end of the incubation period 4 μl of Steady-Glo reagent (Steady-Glo Luciferase assay system (Promega E2520) was added to each well and the plate read immediately in a Leadseeker Plate reader (Amersham Bioscience) using a 660 nm filter. Concentration effect curves were plotted and EC50 values generated using a 4-parameter sigmoid fit using an in-house data analysis programme. Isoprenaline was run in every assay as a reference standard.
On the technique in general: Reporter assays use an easily measured gene product as a stand-in for the process of interest.

Assay [2] has as its target human muscarinic M3 receptor (Homo sapiens, UniProt P20309). The assay is described as follows: Whole cell β-lactamase reporter assay in CHO cells expressing the hM3 receptor (antagonist activity). In kind it is cell-based. To be noted: 80 nM carbamyl choline, IC50 converted to Ki by Cheng-Prusoff. How it is done: Functional Assessment of Antagonist Activity Using a Whole Cell β-Lactamase Reporter Assay in CHO Cells Expressing the hM3 Receptor.
CHO (Chinese Hamster Ovary) cells recombinantly expressing the human muscarinic M3 receptor were transfected with the NFAT_β-Lac_Zeo plasmid. Cells were grown in DMEM with Glutamax-1, supplemented with 25 mM HEPES(Life Technologies 32430-027), containing 10% FCS (Foetal Calf Serum; Sigma F-7524), […] Sodium pyruvate (Sigma S-8636), NEAA (non-Essential Amino Acids; Invitrogen 11140-035) and […] Zeocin (Invitrogen R250-01).
Cells were harvested for assay when they reached 80-90% confluency using enzyme free cell Dissociation Solution (Life technologies 13151-014) incubated with the cells for 5 min at 37° C. in an atmosphere containing 5% CO2. Detached cells were collected in warmed growth media and centrifuged at 200 rpm for 10 min, washed in PBS (Phosphate Buffered Saline; Life Technologies 14190-094) and centrifuged again as just described. The cells were re-suspended at 2×10^5 cells/ml in growth medium (composition as described above). 20 μl of this cell suspension was added to each well of a 384 well black clear bottomed plate (Greiner Bio One 781091-PFI). The assay buffer used was PBS supplemented with 0.05% Pluronic F-127 (Sigma 9003-11-6) and 2.5% DMSO. Muscarinic M3 receptor signalling was stimulated using 80 nM carbamyl choline (Aldrich N240-9) incubated with the cells for 4 h at 37° C./5% CO2 and monitored at the end of the incubation period using a Tecan SpectraFluor+plate reader (λ−excitation 405 nm, emission 450 nm and 503 nm). Compounds under test were added to the assay at the beginning of the 4 h incubation period and compound activity measured as the concentration dependent inhibition of the carbamyl choline induced signal. Inhibition curves were plotted and IC50 values generated using a 4-parameter sigmoid fit and converted to Ki values using the Cheng-Prusoff correction and the KD value for carbamyl choline in the assay.

Sequence of human muscarinic M3 receptor (P20309 whole entry): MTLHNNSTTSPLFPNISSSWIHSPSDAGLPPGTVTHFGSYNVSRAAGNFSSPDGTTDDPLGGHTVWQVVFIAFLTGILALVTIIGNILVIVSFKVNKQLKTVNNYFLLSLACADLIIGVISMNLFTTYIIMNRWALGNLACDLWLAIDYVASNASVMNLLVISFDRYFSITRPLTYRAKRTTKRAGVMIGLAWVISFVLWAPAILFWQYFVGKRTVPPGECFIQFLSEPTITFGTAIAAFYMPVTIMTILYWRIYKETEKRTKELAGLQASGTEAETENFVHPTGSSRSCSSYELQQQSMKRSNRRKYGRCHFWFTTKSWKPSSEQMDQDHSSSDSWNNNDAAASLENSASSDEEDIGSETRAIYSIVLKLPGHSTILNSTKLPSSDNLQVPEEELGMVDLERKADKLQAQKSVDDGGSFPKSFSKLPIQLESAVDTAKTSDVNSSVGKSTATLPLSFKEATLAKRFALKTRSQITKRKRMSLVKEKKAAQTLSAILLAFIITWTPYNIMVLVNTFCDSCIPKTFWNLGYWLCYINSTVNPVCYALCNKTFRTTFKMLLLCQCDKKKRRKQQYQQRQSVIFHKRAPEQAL
Sequence of human adrenergic B2 receptor (P07550 whole entry): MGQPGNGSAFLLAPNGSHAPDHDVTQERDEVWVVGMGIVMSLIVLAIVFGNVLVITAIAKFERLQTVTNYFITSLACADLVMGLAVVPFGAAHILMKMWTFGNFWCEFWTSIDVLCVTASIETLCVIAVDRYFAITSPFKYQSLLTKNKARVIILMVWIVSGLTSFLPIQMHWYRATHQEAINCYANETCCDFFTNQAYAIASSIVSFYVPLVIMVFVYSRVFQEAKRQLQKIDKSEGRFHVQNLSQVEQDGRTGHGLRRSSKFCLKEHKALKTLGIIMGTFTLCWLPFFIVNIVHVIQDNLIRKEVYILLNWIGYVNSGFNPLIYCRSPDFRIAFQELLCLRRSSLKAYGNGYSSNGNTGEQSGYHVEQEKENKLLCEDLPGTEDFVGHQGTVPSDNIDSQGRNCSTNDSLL

On to `CC(C)N(CC[C@H](c1ccccc1)c1cc(CCCCCCCCCCNC[C@H](O)c2ccc(O)c(NS(C)(=O)=O)c2)ccc1O)C(C)C` [Example 1, N-(5-{(1R)-2-[(10-{3-[(1R)-3-(diisopropylamino)-1-phenylpropyl]-4-hydroxyphenyl}decyl)amino]-1-hydroxyethyl}-2-hydroxyphenyl)methanesulfonamide], for which the EC50 in assay [1] was found to be 0.88 nM. Moreover, the affinity in assay [2], expressed as Ki, was 3.4 nM.
Turning to `CC(C)N(CC[C@H](c1ccccc1)c1cc(CCCOc2ccc(CCNC[C@H](O)c3ccc(O)c(NS(C)(=O)=O)c3)cc2)ccc1O)C(C)C` [Example 2, N-{5-[(1R)-2-({2-[4-(3-{3-[(1R)-3-(diisopropylamino)-1-phenylpropyl]-4-hydroxyphenyl}propoxy)phenyl]ethyl}amino)-1-hydroxyethyl]-2-hydroxyphenyl}methanesulfonamide], in assay [1], the EC50 stood at 0.32 nM. Further, the Ki in assay [2] was 1.1 nM.
The corresponding values for `CC(C)N(CC[C@H](c1ccccc1)c1cc(CCCCOc2ccc(CCNC[C@H](O)c3ccc(O)c(NS(C)(=O)=O)c3)cc2)ccc1O)C(C)C` [Example 3, N-{5-[(1R)-2-({2-[4-(4-{3-[(1R)-3-(Diisopropylamino)-1-phenylpropyl]-4-hydroxyphenyl}butoxy)phenyl]ethyl}amino)-1-hydroxyethyl]-2-hydroxyphenyl}methanesulfonamide] are 0.14 nM and 1.4 nM.
The matching figures for `CC(C)N(CC[C@H](c1ccccc1)c1cc(OCCCCCCCNC[C@H](O)c2ccc(O)c(NS(C)(=O)=O)c2)ccc1O)C(C)C` [Example 4, N-(5-{(1R)-2-[(7-{3-[(1R)-3-(diisopropylamino)-1-phenylpropyl]-4-hydroxyphenoxy}heptyl)amino]-1-hydroxyethyl}-2-hydroxyphenyl)methanesulfonamide]: 1.3 nM and 0.28 nM.
The corresponding values for `CC(C)N(CC[C@H](c1ccccc1)c1cc(CCCCOCCCCCCNC[C@H](O)c2ccc(O)c(NS(C)(=O)=O)c2)ccc1O)C(C)C` [Example 6, N-{5-[(1R)-2-{[6-(4-{3-[(1R)-3-(Diisopropylamino)-1-phenylpropyl]-4-hydroxyphenyl}butoxy)hexyl]amino}-1-hydroxyethyl]-2-hydroxyphenyl}methanesulfonamide] are 0.19 nM and 2.4 nM.
Take `CC(C)N(CC[C@H](c1ccccc1)c1cc(CCCCOc2ccc(CCNC[C@H](O)c3ccc(O)c(NC=O)c3)cc2)ccc1O)C(C)C` [Example 7, N-{5-[(1R)-2-({2-[4-(4-{3-[(1R)-3-(diisopropylamino)-1-phenylpropyl]-4-hydroxyphenyl}butoxy)phenyl]ethyl}amino)-1-hydroxyethyl]-2-hydroxyphenyl}formamide]: in assay [1], the 50% effective concentration (EC50) was determined as 0.049 nM. In assay [2], this compound registered a Ki of 2.1 nM.
Regarding `CC(C)N(CC[C@H](c1ccccc1)c1cc(CCCCOc2ccc(CCNC[C@H](O)c3ccc(O)c4[nH]c(=O)ccc34)cc2)ccc1O)C(C)C` [Example 8, 5-[(1R)-2-({2-[4-(4-{3-[(1R)-3-(diisopropylamino)-1-phenylpropyl]-4-hydroxyphenyl}butoxy)phenyl]ethyl}amino)-1-hydroxyethyl]-8-hydroxyquinolin-2(1H)-one], the EC50 in assay [1] stood at 0.035 nM.
On to `CC(C)N(CC[C@H](c1ccccc1)c1cc(CCCCOc2ccc(CCNC[C@H](O)c3cc(O)cc(O)c3)cc2)ccc1O)C(C)C` [Example 9], for which the EC50 in assay [1] is 4.8 nM. This compound also yielded a Ki in assay [2] of 1.1 nM.
On to `CC(C)N(CC[C@H](c1ccccc1)c1cc(CCOc2cccc(CCNC[C@H](O)c3ccc(O)c(NS(C)(=O)=O)c3)c2)ccc1O)C(C)C` [Example 10, N-{5-[(1R)-2-({2-[3-(2-{3-[(1R)-3-(diisopropylamino)-1-phenylpropyl]-4-hydroxyphenyl}ethoxy)phenyl]ethyl}amino)-1-hydroxyethyl]-2-hydroxyphenyl}methanesulfonamide], for which the concentration for a half-maximal effect (EC50) in assay [1] worked out at 0.26 nM. The inhibitory constant (Ki) in assay [2] was 1.1 nM.
Turning to `CC(C)N(CC[C@H](c1ccccc1)c1cc(CCOc2cccc(CCNC[C@H](O)c3ccc(O)c(CO)c3)c2)ccc1O)C(C)C` [Example 11, 2-[(1R)-3-(diisopropylamino)-1-phenylpropyl]-4-(2-{3-[2-({(2R)-2-hydroxy-2-[4-hydroxy-3-(hydroxymethyl)phenyl]ethyl}amino)ethyl]phenoxy}ethyl)phenol], in assay [1], the EC50 worked out at 2.2 nM. This compound returned a Ki in assay [2] of 1.5 nM.
The corresponding values for `CC(C)N(CC[C@H](c1ccccc1)c1cc(CCOc2ccc(CCNC[C@H](O)c3cc(O)cc(O)c3)cc2)ccc1O)C(C)C` [Example 12, 5-[(1R)-2-({2-[4-(2-{3-[(1R)-3-(diisopropylamino)-1-phenylpropyl]-4-hydroxyphenyl}ethoxy)phenyl]ethyl}amino)-1-hydroxyethyl]benzene-1,3-diol] are 13.8 nM and 0.26 nM.
The matching figures for `CC(C)N(CC[C@H](c1ccccc1)c1cc(CCOc2ccc(CCNC[C@H](O)c3ccc(O)c(NC=O)c3)cc2)ccc1O)C(C)C` [Example 13, N-{5-[(1R)-2-({2-[4-(2-{3-[(1R)-3-(diisopropylamino)-1-phenylpropyl]-4-hydroxyphenyl}ethoxy)phenyl]ethyl}amino)-1-hydroxyethyl]-2-hydroxyphenyl}formamide]: 0.078 nM and 0.38 nM.
The corresponding values for `CC(C)N(CC[C@H](c1ccccc1)c1cc(CCOc2ccc(CCNC[C@H](O)c3ccc(O)c4[nH]c(=O)ccc34)cc2)ccc1O)C(C)C` [Example 14, 5-[(1R)-2-({2-[4-(2-{3-[(1R)-3-(diisopropylamino)-1-phenylpropyl]-4-hydroxyphenyl}ethoxy)phenyl]ethyl}amino)-1-hydroxyethyl]-8-hydroxyquinolin-2(1H)-one] are 0.054 nM and 0.76 nM.
On to `CC(C)N(CC[C@H](c1ccccc1)c1cc(CCOc2ccc(CCNC[C@H](O)c3ccc(O)c(CO)c3)cc2)ccc1O)C(C)C` [Example 15, 2-[(1R)-3-(diisopropylamino)-1-phenylpropyl]-4-(2-{4-[2-({(2R)-2-hydroxy-2-[4-hydroxy-3-(hydroxymethyl)phenyl]ethyl}amino)ethyl]phenoxy}ethyl)phenol], for which the half-maximal effective concentration (EC50) in assay [1] is 0.25 nM. For the same compound, in assay [2], the inhibitory constant (Ki) is 0.06 nM.
The matching figures for `CC(C)N(CC[C@H](c1ccccc1)c1cc(CCCCCCCCNC[C@H](O)c2ccc(O)c(NS(C)(=O)=O)c2)ccc1O)C(C)C` [Example 16, N-(5-{(1R)-2-[(8-{3-[(1R)-3-(diisopropylamino)-1-phenylpropyl]-4-hydroxyphenyl}octyl)amino]-1-hydroxyethyl}-2-hydroxyphenyl)methanesulfonamide]: 1.3 nM and 2 nM.
`CC(C)N(CC[C@H](c1ccccc1)c1cc(CCCCOc2ccc(CCNC[C@H](O)c3ccc(O)c(CO)c3)cc2)ccc1O)C(C)C` [Example 18, 2-[(1R)-3-(diisopropylamino)-1-phenylpropyl]-4-(4-{4-[2-({(2R)-2-hydroxy-2-[4-hydroxy-3-(hydroxymethyl)phenyl]ethyl}amino)ethyl]phenoxy}butyl)phenol]: the EC50 in assay [1] came out at 0.22 nM.
